Results: article PMC11125953 (Viruses, 2024)
Counter-ions that a name gives are not always drawn.

System: EHV-4 405/76 reference strain
Assay: RTCA
Format: cell-based, Equid herpesvirus 4
Details: for AUCn: area under normalized Cell Index curves, 0-120 hpi, EHV-4-infected E. Derm cells
[1] = Equid alphaherpesvirus 4, 120 h, read-out: %AUCn

Row | SMILES | AUCn (0.4 µM) | AUCn (2 µM) | AUCn (10 µM) | AUCn (50 µM) | activation at 0.4 µM [1] [%] | activation at 2 µM [1] [%] | activation at 10 µM [1] [%] | activation at 50 µM [1] [%]
1 | C[C@@]1(O)[C@H](O)[C@@H](CO)O[C@H]1n1ccc(N)nc1=O [2′-C-methylcytidine] | 37.52 | 35.13 | 26.93 | 30.32 |  |  |  | 
2 | O=c1[nH]cc(F)c(=O)[nH]1 [5-fluorouracil] | 39.89 | 31.41 | 31.13 | 36.75 |  |  |  | 
3 | Sc1ncnc2nc[nH]c12 [6-mercaptopurine] | 39.53 | 37.02 | 28.97 | 27.72 |  |  |  | 
4 | Nc1nc2nc[nH]c2c(=S)[nH]1 [6-thioguanine] | 37.89 | 38.05 | 34.04 | 29.32 |  |  |  | 
5 | C[C@H](CCCC(C)(C)O)[C@H]1CC[C@H]2[C@@H]3CC=C4C[C@@H](O)CC[C@]4(C)[C@H]3CC[C@]12C [25-hydroxycholesterol] | 39.29 | 34.81 | 29.79 | 31.86 |  |  |  | 
6 | Nc1nc(NC2CC2)c2ncn([C@H]3C=C[C@@H](CO)C3)c2n1 [Abacavir sulfate] | 38.16 | 32.21 | 31.76 | 32.99 |  |  |  | 
7 | CC(C)(C)C(=O)OCOP(=O)(COCCn1cnc2c(N)ncnc21)OCOC(=O)C(C)(C)C [Adefovir dipivoxil] | 99.92 | 93.75 | 73.47 | 39.70 |  |  |  | 
8 | CCOC(=O)c1c(CSc2ccccc2)n(C)c2cc(Br)c(O)c(CN(C)C)c12 [Arbidol] | 31.88 | 39.33 | 37.59 | 35.06 |  |  |  | 
9 | O=c1[nH]c(=O)n([C@H]2C[C@H](O)[C@@H](CO)O2)cc1/C=C/Br [Brivudine] | 28.13 | 30.37 | 31.74 | 36.82 |  |  |  | 
10 | CCCCCOC(=O)Nc1nc(=O)n([C@@H]2O[C@H](C)[C@@H](O)[C@H]2O)cc1F [Capecitabine] | 35.92 | 36.42 | 36.13 | 33.97 |  |  |  | 
11 | Nc1ccn([C@@H]2O[C@H](CO)[C@@H](O)[C@@H]2O)c(=O)n1 [Cytarabine] | 28.59 | 32.46 | 91.79 | 91.89 |  |  |  | 
12 | Cc1ccc2c(=O)c3cccc(CC(=O)O)c3oc2c1C [DMXAA] | 36.50 | 37.99 | 41.23 | 60.10 |  |  |  | 
13 | O=c1[nH]cnc2c1ncn2[C@H]1CC[C@@H](CO)O1 [Didanosine] | 37.77 | 36.23 | 29.27 | 38.91 |  |  |  | 
14 | O=C(N/N=C/c1ccc(O)c(O)c1)c1cc2ccccc2cc1O [Dynasore] | 13.10 | 13.81 | 18.85 | 23.18 |  |  |  | 
15 | NCCCC(N)(C(=O)O)C(F)F (centres unmarked) [Eflornithin (dfmo), Eflornithin] | 44.63 | 32.10 | 30.27 | 32.46 |  |  |  | 
16 | Nc1nc(=O)n([C@@H]2CS[C@H](CO)O2)cc1F [Emtricitabine] | 36.81 | 35.47 | 34.12 | 37.28 |  |  |  | 

Row | SMILES | AUCn (0.4 µM) | AUCn (2 µM) | AUCn (10 µM) | AUCn (50 µM) | activation at 0.4 µM [1] [%] | activation at 2 µM [1] [%] | activation at 10 µM [1] [%] | activation at 50 µM [1] [%]
17 | CC(=O)OCC(CCn1cnc2cnc(N)nc21)COC(C)=O [Famciclovir] | 39.12 | 34.29 | 36.03 | 37.57 |  |  |  | 
18 | NC(=O)c1nc(F)c[nH]c1=O [Favipiravir] | 30.35 | 41.18 | 37.23 | 74.44 |  |  |  | 
19 | CC(C)n1c(/C=C/C(O)CC(O)CC(=O)O)c(-c2ccc(F)cc2)c2ccccc21 (centres unmarked) [Fluvastatin] | 33.08 | 16.45 | 11.66 | 13.86 |  |  |  | 
20 | O=c1c(-c2ccc(O)cc2)coc2cc(O)cc(O)c12 [Genistein] | 11.7 | 12.8 | 13.3 | 11.8 | -17.5 | -9.65 | -6.34 | -16.7
21 | CC(C)Nc1nc2cc(Cl)c(Cl)cc2n1[C@H]1O[C@@H](CO)[C@H](O)[C@@H]1O [Maribavir] | 33.80 | 34.21 | 32.99 | 45.42 |  |  |  | 
22 | COc1nc(N)nc2c1ncn2[C@@H]1O[C@H](CO)[C@@H](O)[C@@H]1O [Nelarabine] | 33.26 | 32.33 | 30.63 | 40.34 |  |  |  | 
23 | Nc1nc2c(ncn2CCC(CO)CO)c(=O)[nH]1 [Penciclovir] | 36.54 | 33.23 | 30.15 | 42.37 |  |  |  | 
24 | CC[C@H](C)C(=O)O[C@H]1C[C@H](O)C=C2C=C[C@H](C)[C@H](CC[C@@H](O)C[C@@H](O)CC(=O)O)[C@H]21 [Pravastatin] | 45.23 | 36.52 | 37.85 | 30.29 |  |  |  | 
25 | [H]/N=C(\N/C(=N/[H])Nc1ccc(Cl)cc1)NC(C)C [Proguanil hydrochloride] | 34.82 | 36.10 | 38.33 | 59.56 |  |  |  | 
26 | CCC(C)(C)C(=O)O[C@H]1C[C@@H](C)C=C2C=C[C@H](C)[C@H](CC[C@@H]3C[C@@H](O)CC(=O)O3)[C@H]21 [Simvastatin] | 34.65 | 32.56 | 24.99 | 20.58 |  |  |  | 
27 | CC(C)OC(=O)[C@H](C)N[P@](=O)(OC[C@H]1O[C@@H](n2ccc(=O)[nH]c2=O)[C@](C)(F)[C@@H]1O)Oc1ccccc1 [Sofosbuvir] | 35.31 | 33.28 | 34.01 | 35.76 |  |  |  | 
28 | Cc1cn([C@H]2C=C[C@@H](CO)O2)c(=O)[nH]c1=O [Stavudine] | 37.85 | 32.94 | 32.23 | 30.20 |  |  |  | 
29 | Cc1cn([C@@H]2C[C@@H](O)[C@H](CO)O2)c(=O)[nH]c1=O [Telbivudine] | 30.51 | 35.43 | 31.31 | 39.04 |  |  |  | 
30 | CC(C)OC(=O)OCOP(=O)(CO[C@H](C)Cn1cnc2c(N)ncnc21)OCOC(=O)OC(C)C [Tenofovir disoproxil] | 34.89 | 43.49 | 93.87 | 52.88 |  |  |  | 
31 | CC(C)[C@H](N)C(=O)OCCOCn1cnc2c(=O)[nH]c(N)nc21 [Valaciclovir] | 33.27 | 28.12 | 27.99 | 42.38 |  |  |  | 
